From PubChem BioAssay (NCI)
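Five concentrations, 48 hours, 96-well plates. At the TGI there is no net growth.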

Legend:
Assay in all cases: DTP human tumour cell line panel, 48 h
[1] = tested on: 786-0 renal
[2] = tested on: A498 renal
[3] = tested on: A549 NSCLC
[4] = tested on: BT-549 breast
[5] = tested on: CAKI-1 renal
[6] = tested on: CCRF-CEM leukemia
[7] = tested on: COLO 205 colon
[8] = tested on: DU-145 prostate
[9] = tested on: EKVX NSCLC
[10] = tested on: HCC-2998 colon
[11] = tested on: HCT-116 colon
[12] = tested on: HCT-15 colon
[13] = tested on: HL-60(TB) leukemia
[14] = tested on: HOP-62 NSCLC
[15] = tested on: HOP-92 NSCLC
[16] = tested on: HT29 colon
[17] = tested on: IGROV1 ovarian
[18] = tested on: K-562 leukemia
[19] = tested on: KM12 colon
[20] = tested on: LOX IMVI melanoma
[21] = tested on: M14 melanoma
[22] = tested on: MALME-3M melanoma
[23] = tested on: MCF7 breast
[24] = tested on: MDA-MB-231 breast
[25] = tested on: MDA-MB-435
[26] = tested on: MDA-N
[27] = tested on: MOLT-4 leukemia
[28] = tested on: NCI-H226 lung
[29] = tested on: NCI-H23 lung
[30] = tested on: NCI/ADR-RES ovarian
[31] = tested on: OVCAR-3 ovarian
[32] = tested on: OVCAR-4 ovarian
[33] = tested on: OVCAR-5 ovarian
[34] = tested on: OVCAR-8 ovarian
[35] = tested on: PC-3 prostate
[36] = tested on: RPMI-8226 leukemia
[37] = tested on: RXF 393 renal
[38] = tested on: SF-268 CNS
[39] = tested on: SF-295 CNS
[40] = tested on: SF-539 CNS
[41] = tested on: SK-MEL-2 melanoma
[42] = tested on: SK-MEL-28 melanoma
[43] = tested on: SK-MEL-5 melanoma
[44] = tested on: SK-OV-3 ovarian
[45] = tested on: SN12C renal
[46] = tested on: SNB-75 CNS
[47] = tested on: SR leukemia
[48] = tested on: SW-620 colon
[49] = tested on: T-47D breast
[50] = tested on: TK-10 renal
[51] = tested on: U251 CNS
[52] = tested on: UACC-257 melanoma
[53] = tested on: UACC-62 melanoma
[54] = tested on: ACHN renal
[55] = tested on: HS 578T breast
[56] = tested on: NCI-H460 lung
[57] = tested on: NCI-H522 lung
[58] = tested on: SNB-19 CNS
[59] = tested on: UO-31 renal

Work on `O=C1CC(Cc2n[nH]c3c2CCCC3)CC(=O)N1` yielded a TGI [1] greater than 100 µM, a TGI [2] greater than 100 µM and a TGI [3] greater than 100 µM. The TGI [4] was greater than 100 µM, the TGI [5] was greater than 100 µM and the TGI [6] was greater than 100 µM. The TGI [7] was greater than 100 µM, the TGI [8] was greater than 100 µM and the TGI [9] was greater than 100 µM. It also gave a TGI [10] greater than 100 µM, a TGI [11] greater than 100 µM and a TGI [12] greater than 100 µM. The TGI [13] was greater than 100 µM, the TGI [14] was greater than 100 µM and the TGI [15] was greater than 100 µM. It also gave a TGI [16] greater than 100 µM, a TGI [17] greater than 100 µM and a TGI [18] greater than 100 µM. The TGI [19] was greater than 100 µM, the TGI [20] was greater than 100 µM and the TGI [21] was greater than 100 µM. For the same compound, the TGI [22] was greater than 100 µM, the TGI [23] was greater than 100 µM and the TGI [24] was greater than 100 µM. For the same compound, the TGI [25] was greater than 100 µM, the TGI [26] was greater than 100 µM and the TGI [27] was greater than 100 µM. The TGI [28] was greater than 100 µM, the TGI [29] was greater than 100 µM and the TGI [30] was greater than 100 µM. The TGI [31] was greater than 100 µM, the TGI [32] was greater than 100 µM and the TGI [33] was greater than 100 µM. It also gave a TGI [34] greater than 100 µM, a TGI [35] greater than 100 µM and a TGI [36] greater than 100 µM. The TGI [37] was greater than 100 µM, the TGI [38] was greater than 100 µM and the TGI [39] was greater than 100 µM. For the same compound, the TGI [40] was greater than 100 µM, the TGI [41] was greater than 100 µM and the TGI [42] was greater than 100 µM. The TGI [43] was greater than 100 µM, the TGI [44] was greater than 100 µM and the TGI [45] was greater than 100 µM. For the same compound, the TGI [46] was greater than 100 µM, the TGI [47] was greater than 100 µM and the TGI [48] was greater than 100 µM. It also gave a TGI [49] greater than 100 µM, a TGI [50] greater than 100 µM and a TGI [51] greater than 100 µM. For the same compound, the TGI [52] was greater than 100 µM and the TGI [53] was greater than 100 µM.

For `COc1ccc2cc(CN3CCC(C4CCN(Cc5ccc6cc(OC)ccc6c5)CC4)CC3)ccc2c1`, the TGI [1] was 4.23 µM, the TGI [2] was 22.2 µM and the TGI [3] was greater than 100 µM. The TGI [54] was 21.7 µM, the TGI [5] was 8.42 µM and the TGI [6] was 4.33 µM. For the same compound, the TGI [7] was 2.98 µM, the TGI [8] was 41.6 µM and the TGI [9] was 29.8 µM. The TGI [10] was 0.367 µM, the TGI [11] was 10.6 µM and the TGI [12] was 3.04 µM. The TGI [13] was 4.31 µM, the TGI [14] was 22.7 µM and the TGI [15] was 8.91 µM. For the same compound, the TGI [55] was 11.8 µM, the TGI [16] was 6.64 µM and the TGI [17] was 21.6 µM. It also gave a TGI [18] of 2.12 µM, a TGI [19] of 6.31 µM and a TGI [20] of 5.66 µM. For the same compound, the TGI [22] was 4.51 µM, the TGI [23] was greater than 100 µM and the TGI [24] was 9.97 µM. The TGI [25] was 3.58 µM, the TGI [26] was 4.06 µM and the TGI [27] was 5.11 µM. For the same compound, the TGI [28] was 38.3 µM, the TGI [29] was 35.9 µM and the TGI [56] was 5.04 µM. It also gave a TGI [57] of 6.56 µM, a TGI [30] of 25.9 µM and a TGI [31] of 9.74 µM. For the same compound, the TGI [32] was 18.2 µM, the TGI [33] was greater than 76.7 µM and the TGI [34] was 19.4 µM. It also gave a TGI [35] of 48.7 µM, a TGI [36] of 4.19 µM and a TGI [37] of 11.8 µM. For the same compound, the TGI [38] was 10.8 µM, the TGI [39] was 7.57 µM and the TGI [40] was greater than 100 µM. For the same compound, the TGI [41] was 12.7 µM, the TGI [42] was 4.75 µM and the TGI [43] was 3.12 µM. It also gave a TGI [44] greater than 72.8 µM, a TGI [45] of 24 µM and a TGI [58] of 16.6 µM. The TGI [46] was 11 µM, the TGI [47] was 3.6 µM and the TGI [48] was 7.98 µM. The TGI [49] was 4.45 µM, the TGI [50] was 6.18 µM and the TGI [51] was 8.41 µM. The TGI [52] was 3.88 µM, the TGI [53] was 3.74 µM and the TGI [59] was 9.78 µM.
